Read-outs that look alike come from different tables or passages of the source.
What was measured:
[1] = test system: human foreskin fibroblasts (HFF); set-up: method as in PMID 34144354, PMID 32347622, doi:10.3390/inorganics9080059, PMID 36500266; conditions: cited from earlier work; for HFF Viability (%): non-infected HFF, vs 0.1% DMSO control = 100%; for HFF Viability at 2.5 µM (%): control 0.25% DMSO = 100%
[2] = test system: T. gondii β-gal tachyzoites; set-up: method as in PMID 34144354, PMID 32347622, doi:10.3390/inorganics9080059, PMID 36500266; conditions: cited from earlier work; for T. Gondii β-gal Growth (%): tachyzoites in HFF, vs 0.1% DMSO control = 100%
[3] = test system: human foreskin fibroblasts (HFF); assay: in vitro
Experimental: (§1) The viability of treated HFF was measured by the alamarBlue metabolic assay, and the proliferation of T. gondii β-gal was quantified by the β-galactosidase colorimetric test. In both cases, results are expressed as percentage (%) compared to control parasitic and host cells treated with 0.1% DMSO for which proliferation and viability were set to 100% (Table 1).
(§2) All tissue culture media were purchased from Gibco-BRL, and biochemical agents from Sigma-Aldrich. […] Transgenic T. gondii β-gal tachyzoites (expressing the β-galactosidase gene from Escherichia coli) from RH strain were kindly provided by Prof.
(§3) The screening sequence for the compounds was described in previous reports. All compounds were prepared as 1 mM stock solutions from powder in dimethyl sulfoxide (DMSO, Sigma, St. Louis, MO, USA). For in vitro activity and cytotoxicity assays, HFF were seeded at 5 × 10^3/well in 96 well plates and allowed to grow to confluence in complete culture medium at 37 °C and 5% CO2.
(§4) All calculations were performed using the corresponding software tool contained in the Excel software package (Microsoft, Redmond, WA, USA). […] Then the medium was removed, the plates were washed once with PBS and 200 μL of resazurin (1:200 dilution in PBS) were added to each well. […] Fluorescence was measured at two different time points: T0 as starting timepoint and T5h as at 5 h later. Relative fluorescence units were calculated from time points with linear increases.

[4] = test system: T. gondii β-gal tachyzoites; assay: In vitro proliferation of T. gondii β-gal tachyzoites in HFF, β-galactosidase colorimetric test (primary screening and IC50); assay type: cell-based, Toxoplasma gondii; conditions: for T. Gondii β-gal Growth (%): 72 h, tachyzoites in HFF, vs 0.1% DMSO control = 100%; for IC50 fold lower compared to pyrimethamine: T. gondii β-gal, pyrimethamine IC50 = 0.326 µM; for IC50: eight serial concentrations 7 nM to 1 µM
Experimental: In a primary screening, each compound was evaluated at two concentrations 0.1 and 1 µM and added to the media prior to the infection as previously described. Control non-infected non-treated HFF cultures and T. gondii β-gal infected but not-treated cultures were cultivated in complete medium containing 0.01 or 0.1% DMSO. The 96-well plates were incubated for 72 h at 37 °C/5% CO2 as previously described.
For the IC50 determination on T. gondii β-gal, eight serial concentrations ranging from 7 nM to 1 μM were tested for each selected compound as previously described and the β-galactosidase assay was performed as reported. Briefly, infected HFF cultures in 96-well plates were lysed with PBS containing 0.05% Triton X-100. Then the substrate chlorophenolred-β-D-galactopyranoside (CPRG; Roche Diagnostics, Rotkreuz, Switzerland) was added in a final concentration of 0.5 mM. Absorption was measured at 570 nm wavelength using an EnSpire® multimode plate reader (PerkinElmer, Inc., Waltham, MA, USA).

[5] = Stability in DMSO-d6 followed by 1H NMR; conditions: 25 °C, 5 min and more than 1 month after sample preparation
in vitro = conditions: human
Experimental: as §1, §2, §3, §4

Row | SMILES | HFF Viability (%) ([1]; 0.1 µM) | HFF Viability (%) ([1]; 1 µM) | T. Gondii β-gal Growth (%) ([2]; 0.1 µM) | T. Gondii β-gal Growth (%) ([2]; 1 µM) | IC50 [2] | HFF Viability (%) ([3]; 0.1 µM) | HFF Viability (%) ([3]; 1 µM) | T. Gondii β-gal Growth (%) ([4]; 0.1 µM) | T. Gondii β-gal Growth (%) ([4]; 1 µM) | IC50 [4] | also measured
1 | CC(C)(C)c1ccc(C[S+]2[Ru-]3[S+](Cc4ccc(C(C)(C)C)cc4)[Ru-]2[S+]3c2ccccc2CO)cc1.Cc1ccc(C(C)C)cc1.Cc1ccc(C(C)C)cc1.[Cl-] (centres unmarked) [Compound 5] | 80 ± 1% | 69 ± 6% | 2 ± 0% | 1 ± 0% | 38 nM | – | – | – | – | – | HFF Viability at 2.5 µM (%) [1]: 4%
2 | CC(C)(C)c1ccc(C[S+]2[Ru-]3[S+](Cc4ccc(C(C)(C)C)cc4)[Ru-]2[S+]3c2ccccc2CN=[N+]=[N-])cc1.Cc1ccc(C(C)C)cc1.Cc1ccc(C(C)C)cc1.[Cl-] (centres unmarked) [Compound 9] | 96 ± 1% | 64 ± 1% | 9 ± 1% | 1 ± 1% | 48 nM | – | – | – | – | – | HFF Viability at 2.5 µM (%) [1]: 11%
3 | CC(=O)OC[C@H]1O[C@@H](OCCCc2cn(Cc3ccccc3[S-])nn2)[C@H](OC(C)=O)[C@@H](OC(C)=O)[C@H]1OC(C)=O.CC(C)(C)c1ccc(C[S-])cc1.CC(C)(C)c1ccc(C[S-])cc1.Cc1ccc(C(C)C)cc1.Cc1ccc(C(C)C)cc1.[Cl-].[Ru+2].[Ru+2] [Compound 26] | – | – | – | – | – | 98 ± 1% | 99 ± 1% | 89 ± 1% | 0 ± 0% | 153 nM | HFF Viability at 2.5 µM (%) [3]: 97%; IC50 fold lower compared to pyrimethamine [4]: 2 fold; Stability in DMSO-d6 (1H NMR spectra) [5]: no significant modifications
4 | CC(=O)OC[C@H]1O[C@@H](n2cc(CCCC(=O)Nc3ccc([S-])cc3)nn2)[C@H](OC(C)=O)[C@@H](OC(C)=O)[C@@H]1OC(C)=O.CC(C)(C)c1ccc(C[S-])cc1.CC(C)(C)c1ccc(C[S-])cc1.Cc1ccc(C(C)C)cc1.Cc1ccc(C(C)C)cc1.[Cl-].[Ru+2].[Ru+2] [Compound 20] | – | – | – | – | – | 98 ± 1% | 99 ± 0% | 100 ± 1% | 1 ± 2% | 110 nM | HFF Viability at 2.5 µM (%) [3]: 77%; Stability in DMSO-d6 (1H NMR spectra) [5]: no significant modifications
5 | C#CCCCC(=O)Nc1ccc([S+]2[Ru-]3[S+](Cc4ccc(C(C)(C)C)cc4)[Ru-]2[S+]3Cc2ccc(C(C)(C)C)cc2)cc1.Cc1ccc(C(C)C)cc1.Cc1ccc(C(C)C)cc1.[Cl-] (centres unmarked) [Compound 7] | – | – | 21 ± 2% | 0 ± 0% | 38 nM | – | – | – | – | – | –
6 | CC(=O)OC[C@H]1O[C@@H](n2cc(CCCC(=O)Oc3ccc([S-])cc3)nn2)[C@H](OC(C)=O)[C@@H](OC(C)=O)[C@@H]1OC(C)=O.CC(C)(C)c1ccc(C[S-])cc1.CC(C)(C)c1ccc(C[S-])cc1.Cc1ccc(C(C)C)cc1.Cc1ccc(C(C)C)cc1.[Cl-].[Ru+2].[Ru+2] [Compound 19] | – | – | – | – | – | 102 ± 1% | 97 ± 1% | 9 ± 1% | 0 ± 0% | 18 nM | HFF Viability at 2.5 µM (%) [3]: 29%
7 | C#CCNC(=O)Cc1ccc([S-])cc1.CC(C)(C)c1ccc(C[S-])cc1.CC(C)(C)c1ccc(C[S-])cc1.Cc1ccc(C(C)C)cc1.Cc1ccc(C(C)C)cc1.[Cl-].[Ru+2].[Ru+2] [Compound 8] | 71 ± 2% | 46 ± 6% | 52 ± 13% | 3 ± 1% | – | – | – | – | – | – | –
8 | CC(=O)OC[C@H]1O[C@@H](OCCn2cc(CCCC(=O)Nc3ccc([S-])cc3)nn2)[C@H](OC(C)=O)[C@@H](OC(C)=O)[C@@H]1OC(C)=O.CC(C)(C)c1ccc(C[S-])cc1.CC(C)(C)c1ccc(C[S-])cc1.Cc1ccc(C(C)C)cc1.Cc1ccc(C(C)C)cc1.[Cl-].[Ru+2].[Ru+2] [Compound 21] | – | – | – | – | – | 100 ± 1% | 101 ± 0% | 87 ± 1% | 1 ± 0% | 87 nM | –
9 | CC(=O)OC[C@H]1O[C@@H](OCCn2cc(CCCC(=O)Nc3ccc([S-])cc3)nn2)[C@H](OC(C)=O)[C@@H](OC(C)=O)[C@H]1OC(C)=O.CC(C)(C)c1ccc(C[S-])cc1.CC(C)(C)c1ccc(C[S-])cc1.Cc1ccc(C(C)C)cc1.Cc1ccc(C(C)C)cc1.[Cl-].[Ru+2].[Ru+2] [Compound 22] | – | – | – | – | – | 100 ± 0% | 101 ± 0% | 73 ± 1% | 2 ± 0% | 298 nM | HFF Viability at 2.5 µM (%) [3]: 73%; Stability in DMSO-d6 (1H NMR spectra) [5]: no significant modifications
10 | CC(=O)OC[C@H]1O[C@@H](OCCCc2cn(Cc3ccccc3[S-])nn2)[C@H](OC(C)=O)[C@@H](OC(C)=O)[C@@H]1OC(C)=O.CC(C)(C)c1ccc(C[S-])cc1.CC(C)(C)c1ccc(C[S-])cc1.Cc1ccc(C(C)C)cc1.Cc1ccc(C(C)C)cc1.[Cl-].[Ru+2].[Ru+2] [Compound 25] | – | – | – | – | – | 98 ± 1% | 97 ± 1% | 75 ± 2% | 27 ± 0% | – | Stability in DMSO-d6 (1H NMR spectra) [5]: no significant modifications
11 | CCc1nc(N)nc(N)c1-c1ccc(Cl)cc1 [Pyrimethamine, reference compound] | – | – | – | – | 326 nM | – | – | – | – | – | –
12 | CC(C)(C)c1ccc(C[S+]2[Ru-]3[S+](Cc4ccc(C(C)(C)C)cc4)[Ru-]2[S+]3c2ccc(N)cc2)cc1.Cc1ccc(C(C)C)cc1.Cc1ccc(C(C)C)cc1.[Cl-] (centres unmarked) [Compound 3] | 74 ± 2% | 48 ± 1% | 57 ± 1% | 2 ± 0% | 153 nM | – | – | – | – | – | HFF Viability at 2.5 µM (%) [1]: 51%
13 | CC(=O)OC[C@H]1O[C@@H](N=[N+]=[N-])[C@H](OC(C)=O)[C@@H](OC(C)=O)[C@@H]1OC(C)=O [Compound 10, 2,3,4,6-tetra-O-acetyl-β-D-glucopyranosyl azide] | – | – | – | – | – | – | – | 101 ± 1% | 99 ± 0% | – | viability at 72 h, 0.1 µM (in vitro): 98 ± 1%; viability at 72 h, 1 µM (in vitro): 99%; Antiparasitic activity (in words) ([4]; 0.1 and 1 µM): neither antiparasitic activity
14 | CC(=O)OC[C@H]1O[C@@H](OCCCn2cc(CCCC(=O)Nc3ccc([S-])cc3)nn2)[C@H](OC(C)=O)[C@@H](OC(C)=O)[C@H]1OC(C)=O.CC(C)(C)c1ccc(C[S-])cc1.CC(C)(C)c1ccc(C[S-])cc1.Cc1ccc(C(C)C)cc1.Cc1ccc(C(C)C)cc1.[Cl-].[Ru+2].[Ru+2] [Compound 23] | – | – | – | – | – | 99 ± 1% | 101 ± 1% | 85 ± 1% | 1 ± 0% | 32 nM | HFF Viability at 2.5 µM (%) [3]: 92%; IC50 fold lower compared to pyrimethamine [4]: 10 fold
15 | C#CCCCC(=O)Oc1ccc([S-])cc1.CC(C)(C)c1ccc(C[S-])cc1.CC(C)(C)c1ccc(C[S-])cc1.Cc1ccc(C(C)C)cc1.Cc1ccc(C(C)C)cc1.[Cl-].[Ru+2].[Ru+2] [Compound 6] | – | – | – | – | – | – | – | 4 ± 0% | 0 ± 0% | 23 nM | –
16 | CC(C)(C)c1ccc(C[S-])cc1.CC(C)(C)c1ccc(C[S-])cc1.Cc1ccc(C(C)C)cc1.Cc1ccc(C(C)C)cc1.Oc1ccc([S-])cc1.[Cl-].[Ru+2].[Ru+2] [Compound 2] | 76 ± 6% | 46 ± 6% | 66 ± 14% | 2 ± 0% | 117 nM | – | – | – | – | – | HFF Viability at 2.5 µM (%) [1]: 56%
17 | CC(C)(C)c1ccc(C[S-])cc1.CC(C)(C)c1ccc(C[S-])cc1.Cc1ccc(C(C)C)cc1.Cc1ccc(C(C)C)cc1.O=C(O)Cc1ccc([S-])cc1.[Cl-].[Ru+2].[Ru+2] [Compound 4] | 91 ± 4% | 73 ± 1% | 114 ± 2% | 110 ± 2% | – | – | – | – | – | – | –

Source: publication PMC9865825, “Synthesis and Antiparasitic Activity of New Trithiolato-Bridged Dinuclear Ruthenium(II)-arene-carbohydrate Conjugates” (Molecules, 2023)
